Test results: patent EP0610377B1, “TRI-SUBSTITUTED TETRAHYDROFURAN ANTIFUNGALS” (SCHERING CORPORATION, priority 1991, dated 1993)

Key:
Assay type in all cases: in vivo
Aspergillus flavus [1] = assay: Aspergillus flavus pulmonary infection model in compromised mice, oral treatment; conditions: for %SURVIVAL / %ANIMALS NEG: 18 days post infection; for %SURVIVAL: compromised CF-1 mice; for %ANIMALS NEG: negative = <10 colonies
Text: The in vivo oral antifungal activity of the compounds of Example 23-26 were compared to those of itraconazole, fluconazole and saperconazole in an Aspergillus pulmonary infection model in mice. The procedure of David Loebenberg et al. entitled "Sch 42427, The Active Enantiomer of Antifungal agent Sch 39304: In Vitro and In Vivo Activity" Antimicrobial Agents and Chemotherapy (1992), 36 498-501 was used. The Aspergillus flavus pulmonary model was run in the following manner Male, CF-1 mice weighing 20 grams were compromised with cortisone acetate (100 mg/kg), administered subcutaneously, once daily for 3 days. In addition, to prevent bacterial disease, tetracycline HCL (300 mg/1) was added to the drinking water and given ad libitum. On day 2 of compromising, mice were infected in an inhalation chamber, first described by Piggot and Emmons in 1960 and modified by us. The chamber is a 1 liter pyrex, thick-walled flask with 8 tubular side-arms that extend into the flask. Each side-arm is a pyrex tube of 14 cm length, constricted to a 1 cm opening inside the flask. The bottom of the flask was covered with a malt extract agar medium on which a sporulating culture of A. flavus ATCC 24133 was grown for 13 days at room temperature. The top of the flask was closed with a #10 stopper through which passed a glass tube attached by rubber tubing to a 60 mL syringe. Mice were placed in each of the side arms and pushed to the bottoms so that their nares extended beyond the open end of the tube and over the agar. Cotton plugs were then inserted behind the mice to hold them in place. By pumping the 60 mL syringe twice, air was forced over the culture and produced a cloud of spores. Mice were exposed to the spore cloud for one minute. Within 15-30 minutes after exposure, a number of mice were sacrificed and lung tissue samples homogenized for culture to determine the number of inhaled conidia. Oral treatment began 24 h post-infection with doses of 5 to 250 mg of drug/kg in ethanol; vehicle (115 ml of Emulphor EL-719P, GAF, Wayne, NJ; and 5 ml of 20% w/v lactic acid per liter of water), 10:90 v/v, once daily for 4 days.
The procedure of Example 31 was used to compare the in vivo oral antifungal activity of (±)-5R/S-(cis)-4-[4-[4-[4-[[5-(2,4-difluorophenyl)-5-(1H-1,2,4-triazol-1-ylmethyl) tetrahydrofuran-3-yl]methoxy-phenyl-1-piperazinyl]phenyl]-2,4-dihydro-2[(R/S)-(1-methylpropyl)]-3H-1,2,4-triazol-3-one with (±)-2R/S-(cis)-1-[4-[[2-(2,4-difluorophenyl)-2-(1H-1,2,4-triazol-1-ylmethyl) tetrahydro-4-furanyl]methoxy]phenyl]-4-(1-methylethyl)piperazine of Example 68 of USP 5,039,676 in an Aspergillus pulmonary infection model described in Example 31. […]
The procedures of Examples 31 and 34 were used.

C. albicans C-43 = assay: Candida systemic model in CF1 mice infected IV with C. albicans C-43, oral treatment; conditions: for %SURVIVAL: day 4 post-infection; for CFUs (GM): day 4
Procedure: The compounds of Examples 23-26 and itraconazole, fluconazole, and saperconazole were tested for in vivo oral antifungal activity in a Candida systemic model using CF1 male mice , average weight 20 g, Harlan Sprague Dawley, Inc., Indianapolis, Ind. infected by IV injection into the tail vein of C. albicans C-43 (5 million CFUs). […] Oral efficacy was measured after four (4) days by percent survival and by the number of organisms remaining in the kidneys i.e., the Colony Forming Units (CFUs). The mice were sacrificed and the kidneys of individual mice were homogenized in sterile saline, diluted and spread onto Mycosel agar. Colony counts were determined after 48 hours at 37°C. For calculation of geometric means, mice that died during the experiment were considered to have 10^9 CFUs/kidneys (based on numerous previous experiments).

C. albicans C-65 = assay: Candida systemic model in normal and compromised CF1 mice infected with C. albicans C-65, oral treatment; conditions: for % S (Percent Survival): day 4 post-infection; for CFUs (GM): day 4, geometric mean of the logarithms of CFU in the kidneys
Procedure: The compounds of Examples 23-26 and itraconazole, fluconazole, and saperconazole were tested for in vivo oral antifungal activity in a Candida systemic model using CF1 male mice , average weight 20 g, Harlan Sprague Dawley, Inc., Indianapolis, Ind. infected by IV injection into the tail vein of C. albicans C-43 (5 million CFUs). The drugs were dissolved in polyethylene glycol-200 (PEG-200) and tested by orally administering 50, 25 and 10 mpk of each drug 4 hours post infection and once daily for 3 more days. Oral efficacy was measured after four (4) days by percent survival and by the number of organisms remaining in the kidneys i.e., the Colony Forming Units (CFUs). The mice were sacrificed and the kidneys of individual mice were homogenized in sterile saline, diluted and spread onto Mycosel agar. Colony counts were determined after 48 hours at 37°C. For calculation of geometric means, mice that died during the experiment were considered to have 10^9 CFUs/kidneys (based on numerous previous experiments).
The compounds of Examples 23-24 and itraconazole, fluconazole, were tested for in vivo oral antifungal anctivity in a Candida systemic model using normal and compromised CF1 mice infected with C. albicans C-65 (5 million CFUs). The procedure of Example 33 was followed. The drugs were dissolved in polyethylene glycol-200 ("PEG-200) at room temperature and tested by orally administering 100, 50, 25, 10 and 1 mpk of each drug. Oral efficacy was measured by percent survival and by the number of organisms remaining in the kidneys (CFUs) after four days. […] The pharmaceutical composition of the preferred compound of formula IIb of Eample 24 in hydroxypropyl beta cyclodextrin ("HPβCD") having 7.4 hydroxypropyl groups per HPβCD (obtained from Pharmatec, Inc., Alachua, FL 32615) was prepared by admixing the appropriate amount of the compound IIa with a 40% (w/v) solution of HPβCD (4 g of HPβCD per 10 mL of purified water). Gentle heating was used to form a clear solution. For the 10 mpk dose, 12 mg of Ha was added to 6 mL of a 40% w/v solution of HPβCD. For dilutions, sterile water was added to the solution with mixing. The pharmaceutical composition of itraconazole and the Pharmatec HPβCD described above was prepared as follows. Propylene glycol (10 mL) was admixed with 0.95 mL of concentrated HCI at 40°-45°C with stirring. Itraconazole (2.5 g) was added thereto and stirring was continued until homogeneous. The mixture so formed was cooled to 20° to 30°C and admixed with a solution of 60 g of HPβCD in 40 mL of purified water to form a clear solution. The pH was adjusted to a value of 1.9-2.1 with 10N NaOH and sufficient purified water added (with mixing) to a final volume of 100 mL. For dilutions, sterile water was added to the itraconazole - HPβCD.

Aspergillus flavus [2] = assay: Aspergillus flavus pulmonary infection model in compromised mice, oral treatment; conditions: for PERCENT SURVIVAL AFTER 5 DAYS (5D): head prints 50 mg/kg (third dose column, c3), in PEG-200 daily for 4 days; for PERCENT SURVIVAL AFTER 5 DAYS (5D) / Percent Survival After 11 Days: CF-1 mice
[3] = 100 mg/kg PO once a day for 4 days
[4] = 50 MPK PO in PEG-200, 1 a day x 4 days
[5] = 50 MPK PO in PEG-200, geometric mean of the logarithms of CFU remaining in the kidneys (dead mice counted as 10^9)
[6] = 50 mg/kg PO in PEG-200, OD for 4 days
[7] = 100 mg/kg PO in PEG-200, OD for 4 days
[8] = 200 mg/kg PO in PEG-200, OD for 4 days
[9] = 33 mg/kg PO once a day for 4 days
[10] = 66 mg/kg PO once a day for 4 days

With `OC(Cn1cncn1)(Cn1cncn1)c1ccc(F)cc1F` [Fluconazole, reference compound] the “%SURVIVAL” value (Aspergillus flavus [1]; [3]) was 10%, the “%ANIMALS NEG” value (Aspergillus flavus [1]; [3]) was 0% and the “%SURVIVAL” value (C. albicans C-43; 1 MPK PO in ETOH/Mon, 1 a day x 4 days) was 70%. For the same compound, the “CFUs (GM)” value (C. albicans C-43; 1 MPK PO in ETOH/Mon, geometric mean of the logarithms of CFU remaining in the kidneys) was 6.58, the “%SURVIVAL” value (C. albicans C-43; 10 MPK PO in ETOH/Mon, 1 a day x 4 days) was 90% and the “CFUs (GM)” value (C. albicans C-43; 10 MPK PO in ETOH/Mon, geometric mean of the logarithms of CFU remaining in the kidneys) was 5.68. For the same compound, the “% S (Percent Survival)” value (C. albicans C-65; 600 Rads Mice (compromised), 10 MPK PO in PEG-200, 1/day x 4 days) was 20%, the “CFUs (GM)” value (C. albicans C-65; 600 Rads Mice (compromised), 10 MPK PO in PEG-200) was 8.01 and the “% S (Percent Survival)” value (C. albicans C-65; 600 Rads Mice (compromised), 25 MPK PO in PEG-200, 1/day x 4 days) was 50%. For the same compound, the “CFUs (GM)” value (C. albicans C-65; 600 Rads Mice (compromised), 25 MPK PO in PEG-200) was 6.91, the “% S (Percent Survival)” value (C. albicans C-65; Normal Mice, 1 MPK PO in PEG-200, 1/day x 4 days) was 60% and the “CFUs (GM)” value (C. albicans C-65; Normal Mice, 1 MPK PO in PEG-200) was 5.81. For the same compound, the “% S (Percent Survival)” value (C. albicans C-65; Normal Mice, 10 MPK PO in PEG-200, 1/day x 4 days) was 80% and the “CFUs (GM)” value (C. albicans C-65; Normal Mice, 10 MPK PO in PEG-200) was 5.35.

In the case of `CCC(C)n1ncn(-c2ccc(N3CCN(c4ccc(OC[C@H]5CO[C@](Cn6cncn6)(c6ccc(F)cc6F)O5)cc4)CC3)cc2)c1=O` (some centres unmarked) [Saperconazole, reference compound], the “%SURVIVAL” value (Aspergillus flavus [1]; [3]) is reported as 0%, the “%ANIMALS NEG” value (Aspergillus flavus [1]; [3]) is reported as 0% and the “%SURVIVAL” value (C. albicans C-43; [4]) is reported as 20%. The “CFUs (GM)” value (C. albicans C-43; [5]) was 8.20 and the “PERCENT SURVIVAL AFTER 5 DAYS (5D)” value (Aspergillus flavus [2]) was 50.

`CC(C)N1CCN(c2ccc(OC[C@@H]3CO[C@@](Cn4cncn4)(c4ccc(F)cc4F)C3)cc2)CC1` (racemic) [Example 68 of US Patent 5,039,676, (±)-2R/S-(cis)-1-[4-[[2-(2,4-difluorophenyl)-2-(1H-1,2,4-triazol-1-ylmethyl)tetrahydro-4-furanyl]methoxy]phenyl]-4-(1-methylethyl)piperazine, reference compound] was tested, and the “oral activity in the Aspergillus pulmonary mouse model” value (Aspergillus flavus [1]; PO, result in words (active / inactive)) was “inactive”, the “Percent Survival After 11 Days” value (Aspergillus flavus [2]; [6]) was 0 and the “Percent Survival After 11 Days” value (Aspergillus flavus [2]; [7]) was 0. The “Percent Survival After 11 Days” value (Aspergillus flavus [2]; [8]) was 0.

`CC[C@@H](C)n1ncn(-c2ccc(N3CCN(c4ccc(OC[C@H]5CO[C@](Cn6cncn6)(c6ccc(F)cc6F)C5)cc4)CC3)cc2)c1=O` [Example 26, (+)-[(5S)-cis]-4-[4-[4-[4-[[5-(2,4-Difluorophenyl)-5-(1H-1,24-triazol-1-ylmethyl)tetrahydrofuran-3-yl]methoxy]phenyl]-1-piperazinyl]phenyl]-2,4-dihydro-2-[(1R)-(1-methylpropyl)]-3H-1,2,4-triazol-3-one] was tested, and the “%SURVIVAL” value (Aspergillus flavus [1]; [9]) was 0%, the “%ANIMALS NEG” value (Aspergillus flavus [1]; [9]) was 0% and the “%SURVIVAL” value (Aspergillus flavus [1]; [10]) was 0%. The “%ANIMALS NEG” value (Aspergillus flavus [1]; [10]) was 0%, the “%SURVIVAL” value (Aspergillus flavus [1]; [3]) was 20% and the “%ANIMALS NEG” value (Aspergillus flavus [1]; [3]) was 0%. For the same compound, the “%SURVIVAL” value (C. albicans C-43; 10 MPK PO in PEG-200, 1 a day x 4 days) was 0%, the “CFUs (GM)” value (C. albicans C-43; 10 MPK PO in PEG-200, geometric mean of the logarithms of CFU remaining in the kidneys (dead mice counted as 10^9)) was 9.00 and the “%SURVIVAL” value (C. albicans C-43; 25 MPK PO in PEG-200, 1 a day x 4 days) was 0%. The “CFUs (GM)” value (C. albicans C-43; 25 MPK PO in PEG-200, geometric mean of the logarithms of CFU remaining in the kidneys (dead mice counted as 10^9)) was 9.00, the “%SURVIVAL” value (C. albicans C-43; [4]) was 20% and the “CFUs (GM)” value (C. albicans C-43; [5]) was 7.84. For the same compound, the “%SURVIVAL” value (Aspergillus flavus [2]; 33 mg/kg PO [3RX/DAY] for 4 days, 18 days post infection, compromised CF-1 mice) was 0% and the “%ANIMALS NEG” value (Aspergillus flavus [2]; 33 mg/kg PO [3RX/DAY] for 4 days, 18 days post infection, negative = <10 colonies) was 0%.

In the case of `CCC(C)n1ncn(-c2ccc(N3CCN(c4ccc(OC[C@@H]5CO[C@@](Cn6cncn6)(c6ccc(F)cc6F)C5)cc4)CC3)cc2)c1=O` (mixture of isomers) [Compound 1 of Table III of Examples 34, (±)-5R/S-(cis)-4-[4-[4-[4-[[5-(2,4-difluorophenyl)-5-(1H-1,2,4-triazol-1-ylmethyl)tetrahydrofuran-3-yl]methoxyphenyl-1-piperazinyl]phenyl]-2,4-dihydro-2[(RS)-(1-methylpropyl)]-3H-1,2,4-triazol-3-one], the “Percent Survival After 11 Days” value (Aspergillus flavus [2]; [6]) is reported as 16.7, the “Percent Survival After 11 Days” value (Aspergillus flavus [2]; [7]) is reported as 41.7 and the “Percent Survival After 11 Days” value (Aspergillus flavus [2]; [8]) is reported as 50.0. The “PERCENT SURVIVAL AFTER 5 DAYS (5D)” value (Aspergillus flavus [2]) was 50.
